Laboratory results as given in patent US10350199B2, “3-(1h-pyrrolo[2,3-b]pyridin-2-yl)-1h-indazoles and therapeutic uses thereof” (Samumed, LLC, priority 2015, dated 2019).

Legend:
Format in all cases: cell-based
[1] = system: Wnt activity (Sp5-Luc reporter, SW480 colon carcinoma cells); experiment: Wnt activity screening assay, Sp5-Luc reporter gene in SW480 cells; conditions: Homo sapiens; for inhibition at 10 µM: SW480, read-out: percent inhibition at 10 μM; for EC50: Sp5-Luc reporter, SW480 cells, overnight incubation
Excerpt: The screening assay for Wnt activity is described as follows. Reporter cell lines can be generated by stably transducing cancer cell lines (e.g., colon cancer) or primary cells (e.g., IEC-6 intestinal cells) with a lentiviral construct that includes a Wnt-responsive promoter driving expression of the firefly luciferase gene.
SW480 colon carcinoma cells were transduced with a lentiviral vector expressing luciferase with a human Sp5 promoter consisting of a sequence of eight TCF/LEF binding sites. SW480 cells stably expressing the Sp5-Luc reporter gene and a hygromycin resistance gene were selected by treatment with 150 μg/mL of hygromycin for 7 days. These stably transduced SW480 cells were expanded in cell culture and used for all further screening activities. […] For Sp5-Luc reporter gene assays, the cells were plated at 4,000 cells/well in 384-well plates with medium containing 1% fetal bovine serum and incubated overnight at 37° C. and 5% CO2. Following incubation, 20 μl of BrightGlo luminescence reagent (Promega) was added to each well of the 384-well assay plates. The plates were placed on an orbital shaker for 2 min and then luminescence was quantified using the Envision (Perkin Elmer) plate reader. Readings were normalized to DMSO only treated cells, and normalized activities were utilized for EC50 calculations using the dose-response log (inhibitor) vs. response -variable slope (four parameters) nonlinear regression feature available in GraphPad Prism 5.0 (or Dotmatics).

SW480 colon cancer cells = experiment: Cell viability assay (CellTiter-Blue), SW480 cells, four days; conditions: Homo sapiens; for EC50: 96 h, SW480 cell viability, four days, CellTiter-Blue; for inhibition at 10 µM: SW480, read-out: percent inhibition at 10 μM
Description: Representative compounds were screened using the following assay procedure to assess the effect on cell viability as described below.
Approximately 2×10^3 SW480 colon cancer cells were seeded into each well and allowed to incubate in the presence or absence of compound for four days at 37° C./5% CO2. Eight replicates of DMSO-treated cells served as controls and cells treated with compound were performed in duplicate.
After incubation, 20 μL of CellTiter-Blue (Promega) was added to each well allowed to incubate for approximately 3 hours. This reagent was a buffered solution which contains resazurin, metabolically active cells were able to reduce rezarurin (blue) into resorufin (pink) which was highly fluorescent. This measured fluorescence was used as a readout for cell viability.

[2] = system: primary human fibroblasts derived from IPF patients (LL29 cells) treated with TGF-β1; experiment: Inhibition of the fibrotic process: αSMA staining in TGF-β1 treated LL29 fibroblasts; conditions: Fibroblast; for EC50: 96 h, LL29 cells, TGF-β1 20 ng/mL, 4 days, % αSMA positive cells; for inhibition at 10 µM: read-out: percent inhibition at 10 μM
Description: Representative compounds were screened using primary human fibroblasts (derived from IPF patients) treated with TGF-β1 to determine their ability to inhibit the fibrotic process.
LL29 cells are plated at 1,500 cells/well in 80 μL/well F12 medium supplemented with 1% Fetal Bovine Serum. […] Wells treated with TGF-β1 and containing DMSO were used as controls. […] Following incubation for 4 days, SYTOX green nucleic acid stain (Life Technologies [Thermo Fisher Scientific]) was added to the wells at a final concentration of 1 μM and incubated at room temperature for 30 min.

[3] = system: IL-6 (THP-1 human monocyte cell line); experiment: IL-6 inhibition in LPS-stimulated THP-1 cells (HTRF); conditions: for EC50: IL-6 inhibition, LPS-stimulated THP-1 cells, HTRF; for inhibition at 10 µM: THP-1, read-out: percentage in parentheses beside EC50 >10 (IL-6 inhibition)
Description: THP-1 cells were cultured in basal media with 1% FBS for 24 hours before the start of the assay. […] THP-1 cells were plated at 5000 cells/well in the 384-well plates and incubated at 37° C. for 2 h. 500 ng/mL of LPS was added after 2 hours and cells were incubated for another 22 hours at 37° C. Plates were spun in a centrifuge for 1 minute at […] and a mixture of anti-IL6 XL665, and anti-IL6 Cryptate diluted in reconstitution buffer (Cisbio Inc.) was added to each well. Following incubation for 3 hrs at room temperature, Homogeneous Time-Resolved Fluorescence (HTRF) was measured using the Envision (Perkin Elmer) at 665 nm and […]. The ratio of fluorescence at 665 nm to 620 nm was used as a readout for IL6 quantification. All samples were processed in duplicate. Readings were normalized to DMSO treated cells and normalized activities were utilized for EC50 calculations using the dose-response log (inhibitor) vs. response -variable slope (four parameters) nonlinear regression feature available in GraphPad Prism 5.0 (or Dotmatics).

Row | EC50 [1] | EC50 (SW480 colon cancer cells) | EC50 [3] | SMILES | inhibition at 10 µM [1] | inhibition at 10 µM (SW480 colon cancer cells) | EC50 [2] | inhibition at 10 µM [2] | inhibition at 10 µM [3]
1 | > 10 µM | > 10 µM | 0.995 µM | Fc1cccc(-c2ccnc3[nH]c(-c4n[nH]c5ccc(-c6ccncc6)cc45)cc23)c1 [Compound 18, 3-(4-(3-Fluorophenyl)-1H-pyrrolo[2,3-b]pyridin-2-yl)-5-(pyridin-4-yl)-1H-indazole] | 18% | 16.2% | > 10 µM | 33.6% | –
2 | 0.035 µM | 1.06 µM | > 10 µM | O=C(Nc1cncc(-c2ccc3[nH]nc(-c4cc5c(-c6cccc(F)c6)ccnc5[nH]4)c3c2)c1)C1CC1 [Compound 20, N-(5-(3-(4-(3-Fluorophenyl)-1H-pyrrolo[2,3-b]pyridin-2-yl)-1H-indazol-5-yl)pyridin-3-yl)cyclopropanecarboxamide] | – | – | 7.73 µM | – | 34.5%
3 | > 10 µM | > 10 µM | 0.285 µM | Fc1cccc(-c2ccnc3[nH]c(-c4n[nH]c5ccc(-c6cncc(CN7CCC(F)(F)C7)c6)cc45)cc23)c1 [Compound 26, 5-(5-((3,3-Difluoropyrrolidin-1-yl)methyl)pyridin-3-yl)-3-(4-(3-fluorophenyl)-1H-pyrrolo[2,3-b]pyridin-2-yl)-1H-indazole] | 49% | 40.6% | 1.96 µM | – | –
4 | > 10 µM | > 10 µM | > 10 µM | Fc1cccc(-c2ccnc3[nH]c(-c4n[nH]c5ccc(-c6ccccn6)cc45)cc23)c1 [Compound 28, 3-(4-(3-Fluorophenyl)-1H-pyrrolo[2,3-b]pyridin-2-yl)-5-(pyridin-2-yl)-1H-indazole] | 8.5% | 12.9% | > 10 µM | 12% | 21%
5 | > 10 µM | > 10 µM | > 10 µM | CC(C)CC(=O)Nc1cncc(-c2ccc3[nH]nc(-c4cc5c(-c6ccc(F)cc6)ccnc5[nH]4)c3c2)c1 [Compound 30, N-(5-(3-(4-(4-Fluorophenyl)-1H-pyrrolo[2,3-b]pyridin-2-yl)-1H-indazol-5-yl)pyridin-3-yl)-3-methylbutanamide] | 13.6% | 14.9% | > 10 µM | 20.2% | 25.3%
6 | > 10 µM | > 10 µM | > 10 µM | CC(C)(C)C(=O)Nc1cncc(-c2ccc3[nH]nc(-c4cc5c(-c6ccc(F)cc6)ccnc5[nH]4)c3c2)c1 [Compound 36, N-(5-(3-(4-(4-Fluorophenyl)-1H-pyrrolo[2,3-b]pyridin-2-yl)-1H-indazol-5-yl)pyridin-3-yl)pivalamide] | 11.7% | 33.1% | > 10 µM | 0% | 19.3%
7 | > 10 µM | > 10 µM | > 10 µM | O=C(Nc1cncc(-c2ccc3[nH]nc(-c4cc5c(-c6ccc(F)cc6)ccnc5[nH]4)c3c2)c1)c1ccccc1 [Compound 39, N-(5-(3-(4-(4-Fluorophenyl)-1H-pyrrolo[2,3-b]pyridin-2-yl)-1H-indazol-5-yl)pyridin-3-yl)benzamide] | 0% | 24.2% | 4.88 µM | – | 28.4%
8 | > 10 µM | > 10 µM | > 10 µM | CCCC(=O)Nc1cncc(-c2ccc3[nH]nc(-c4cc5c(-c6ccc(F)cc6)ccnc5[nH]4)c3c2)c1 [Compound 45, N-(5-(3-(4-(4-Fluorophenyl)-1H-pyrrolo[2,3-b]pyridin-2-yl)-1H-indazol-5-yl)pyridin-3-yl)butyramide] | 11% | 30.7% | 5.24 µM | – | 25.8%
9 | > 10 µM | > 10 µM | > 10 µM | O=C(Nc1cncc(-c2ccc3[nH]nc(-c4cc5c(-c6ccc(F)cc6)ccnc5[nH]4)c3c2)c1)C1CCC1 [Compound 49, N-(5-(3-(4-(4-Fluorophenyl)-1H-pyrrolo[2,3-b]pyridin-2-yl)-1H-indazol-5-yl)pyridin-3-yl)cyclobutanecarboxamide] | 10.6% | 11.8% | > 10 µM | 3.2% | 29.6%
10 | > 10 µM | > 10 µM | > 10 µM | CC(C)C(=O)Nc1cncc(-c2ccc3[nH]nc(-c4cc5c(-c6ccccc6F)ccnc5[nH]4)c3c2)c1 [Compound 65, N-(5-(3-(4-(2-Fluorophenyl)-1H-pyrrolo[2,3-b]pyridin-2-yl)-1H-indazol-5-yl)pyridin-3-yl)isobutyramide] | 30.5% | 10.8% | > 10 µM | 11.7% | 34.9%
11 | > 10 µM | > 10 µM | 0.384 µM | CC(C)Nc1cncc(-c2ccc3[nH]nc(-c4cc5c(-c6ccccc6F)ccnc5[nH]4)c3c2)c1 [Compound 68, 5-(3-(4-(2-Fluorophenyl)-1H-pyrrolo[2,3-b]pyridin-2-yl)-1H-indazol-5-yl)-N-isopropylpyridin-3-amine] | 18.7% | 10.9% | > 10 µM | 0% | –
12 | > 10 µM | > 10 µM | > 10 µM | CC(C)(C)CC(=O)Nc1cncc(-c2ccc3[nH]nc(-c4cc5c(-c6ccccc6F)ccnc5[nH]4)c3c2)c1 [Compound 72, N-(5-(3-(4-(2-Fluorophenyl)-1H-pyrrolo[2,3-b]pyridin-2-yl)-1H-indazol-5-yl)pyridin-3-yl)-3,3-dimethylbutanamide] | 9.3% | 12.6% | > 10 µM | 5.4% | 10.5%
13 | > 10 µM | > 10 µM | > 10 µM | CCCCC(=O)Nc1cncc(-c2ccc3[nH]nc(-c4cc5c(-c6ccccc6F)ccnc5[nH]4)c3c2)c1 [Compound 75, N-(5-(3-(4-(2-Fluorophenyl)-1H-pyrrolo[2,3-b]pyridin-2-yl)-1H-indazol-5-yl)pyridin-3-yl)pentanamide] | 13% | 16.8% | > 10 µM | 29.1% | 38.2%
14 | 2.1 µM | 6.94 µM | 0.971 µM | CC(C)CC(=O)Nc1cncc(-c2ccc3[nH]nc(-c4cc5c(-c6ccsc6)ccnc5[nH]4)c3c2)c1 [Compound 282, 3-Methyl-N-(5-(3-(4-(thiophen-3-yl)-1H-pyrrolo[2,3-b]pyridin-2-yl)-1H-indazol-5-yl)pyridin-3-yl)butanamide] | – | – | – | – | –
15 | > 10 µM | > 10 µM | 0.012 µM | COc1cncc(-c2ccc3[nH]nc(-c4cc5c(-c6ccco6)ccnc5[nH]4)c3c2)c1 [Compound 991, 3-(4-(Furan-2-yl)-1H-pyrrolo[2,3-b]pyridin-2-yl)-5-(5-methoxypyridin-3-yl)-1H-indazole] | 7.9% | 0% | – | – | –
